Laboratory results published in ChEMBL document CHEMBL3856202, “Synthesis and screening of triazolopyrimidine scaffold as multi-functional agents for Alzheimer's disease therapies” (Eur J Med Chem, 2016).
The source made the active and inactive calls. No cut-off for these calls is given here.

Columns and labels:
Acetylcholinesterase = Acetylcholinesterase (Electrophorus electricus, UniProt O42275)
Description: Inhibition of electric eel AChE preincubated for 5 mins followed by addition of acetylthiocholine iodide as substrate measured after 2 mins by Ellman's method

[1] = molecular target: Amyloid-beta precursor protein (Homo sapiens) (UniProt P05067); experiment: Inhibition of amyloid beta (1 to 42) (unknown origin) aggregation assessed at 25 uM after 24 to 48 hrs by transmission electron microscopic analysis
SH-SY5Y [2] = experiment: Neuroprotective activity in human SH-SY5Y cells assessed as reduction of amyloid beta (1 to 42)-induced neurotoxicity measured as cell viability preincubated 30 mins followed by amyloid beta (1 to 42) peptide addition for 24 hrs by MTT assay; type: functional, cell-based
[3] = molecular target: Amyloid-beta precursor protein (Homo sapiens) (UniProt P05067); conditions: at 25 µM
Description: Inhibition of amyloid beta (1 to 42) (unknown origin) self-aggregation at 25 uM measured after 48 hrs by ThT-assay

SH-SY5Y [4] = experiment: Neuroprotective activity in human SH-SY5Y cells assessed as reduction of H2O2-induced neurotoxicity measured as increase in cell viability at 1 to 20 uM incubated for 24 hrs with H2O2-challenge by MTT assay; type: functional, cell-based
[5] = Cytotoxicity against human SH-SY5Y cells assessed as cell viability at 1 to 50 uM measured after 24 hrs by MTT assay; type: toxicity, cell-based
Cholinesterase = Cholinesterase (Equus caballus, UniProt P81908)
Description: Inhibition of equine serum BuChE preincubated for 5 mins followed by addition of butyrylthiocholine iodide as substrate measured after 2 mins by Ellman's method

[6] = Neuroprotective activity in human SH-SY5Y cells assessed as reduction of amyloid beta (1 to 42)-induced neurotoxicity measured as cell viability at 5 to 25 uM preincubated 30 mins followed by amyloid beta (1 to 42) peptide addition for 24 hrs by MTT assay relative to control; type: functional
SH-SY5Y [7] = experiment: Neuroprotective activity in human SH-SY5Y cells assessed as reduction of amyloid beta (1 to 42)-induced neurotoxicity measured as morphological changes preincubated 30 mins followed by amyloid beta (1 to 42) peptide addition for 24 hrs by microscopy; type: functional, cell-based
SH-SY5Y [8] = experiment: Neuroprotective activity in human SH-SY5Y cells assessed as reduction of H2O2-induced neurotoxicity measured as morphological changes at 10 uM incubated for 24 hrs with H2O2-challenge by microscopy; type: functional, cell-based
[9] = molecular target: Acetylcholinesterase (Electrophorus electricus) (UniProt O42275); conditions: at 100 µM
Description: Inhibition of electric eel AChE-mediated amyloid beta (1 to 42) (unknown origin) co-aggregation at 100 uM measured after 48 hrs by ThT-assay

[10] = molecular target: Acetylcholinesterase (Electrophorus electricus) (UniProt O42275); experiment: Potency index, ratio of IC50 for galantamine to IC50 for test compound against electric eel AChE
[11] = molecular target: Acetylcholinesterase (Electrophorus electricus) (UniProt O42275); experiment: Potency index, ratio of IC50 for rivastigmine to IC50 for test compound against electric eel AChE
[12] = molecular target: Acetylcholinesterase (Electrophorus electricus) (UniProt O42275); conditions: at 12 to 42 nM
[13] = molecular target: Acetylcholinesterase (Electrophorus electricus) (UniProt O42275); experiment: Potency index, ratio of IC50 for tacrine to IC50 for test compound against electric eel AChE
[14] = molecular target: Cholinesterase (Equus caballus) (UniProt P81908); experiment: Potency index, ratio of IC50 donepezil to IC50 for test compound against equine serum BuChE
Sequence of Cholinesterase (Equus caballus) (P81908 whole entry): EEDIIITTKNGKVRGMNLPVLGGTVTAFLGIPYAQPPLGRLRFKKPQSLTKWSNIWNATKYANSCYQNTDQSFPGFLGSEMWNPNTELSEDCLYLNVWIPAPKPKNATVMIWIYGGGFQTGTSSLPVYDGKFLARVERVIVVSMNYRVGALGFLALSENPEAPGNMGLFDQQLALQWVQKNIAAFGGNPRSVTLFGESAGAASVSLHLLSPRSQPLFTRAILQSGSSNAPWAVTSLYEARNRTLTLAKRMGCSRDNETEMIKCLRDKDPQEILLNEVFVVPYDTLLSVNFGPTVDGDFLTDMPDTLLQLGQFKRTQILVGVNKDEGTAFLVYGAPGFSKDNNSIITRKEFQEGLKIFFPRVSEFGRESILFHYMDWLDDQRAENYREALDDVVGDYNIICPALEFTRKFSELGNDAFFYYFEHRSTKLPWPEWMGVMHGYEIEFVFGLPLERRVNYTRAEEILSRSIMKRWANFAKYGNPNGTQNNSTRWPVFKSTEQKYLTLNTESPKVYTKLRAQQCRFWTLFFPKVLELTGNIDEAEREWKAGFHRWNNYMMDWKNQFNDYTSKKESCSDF

Sequence of Cholinesterase (P81908 whole entry): as above
Sequence of Acetylcholinesterase (Electrophorus electricus) (O42275 24-633 limits assumed): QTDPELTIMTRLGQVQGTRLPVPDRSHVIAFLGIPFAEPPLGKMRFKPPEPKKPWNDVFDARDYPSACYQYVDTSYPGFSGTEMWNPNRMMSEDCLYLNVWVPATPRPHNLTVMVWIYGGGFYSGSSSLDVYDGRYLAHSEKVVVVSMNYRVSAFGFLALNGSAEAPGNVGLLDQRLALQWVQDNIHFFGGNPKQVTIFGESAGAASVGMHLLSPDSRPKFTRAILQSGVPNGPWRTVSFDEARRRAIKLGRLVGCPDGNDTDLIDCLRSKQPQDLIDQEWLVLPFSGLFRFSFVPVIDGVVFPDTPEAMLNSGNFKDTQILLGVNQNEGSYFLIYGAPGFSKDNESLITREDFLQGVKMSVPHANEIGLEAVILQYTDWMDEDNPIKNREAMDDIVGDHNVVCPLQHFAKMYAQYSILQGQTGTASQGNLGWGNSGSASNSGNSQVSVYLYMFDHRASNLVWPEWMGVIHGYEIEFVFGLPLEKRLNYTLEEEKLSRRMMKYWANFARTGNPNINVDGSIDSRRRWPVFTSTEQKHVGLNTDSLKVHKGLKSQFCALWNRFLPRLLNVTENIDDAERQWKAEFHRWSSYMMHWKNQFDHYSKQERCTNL
Sequence of Acetylcholinesterase (O42275 whole entry): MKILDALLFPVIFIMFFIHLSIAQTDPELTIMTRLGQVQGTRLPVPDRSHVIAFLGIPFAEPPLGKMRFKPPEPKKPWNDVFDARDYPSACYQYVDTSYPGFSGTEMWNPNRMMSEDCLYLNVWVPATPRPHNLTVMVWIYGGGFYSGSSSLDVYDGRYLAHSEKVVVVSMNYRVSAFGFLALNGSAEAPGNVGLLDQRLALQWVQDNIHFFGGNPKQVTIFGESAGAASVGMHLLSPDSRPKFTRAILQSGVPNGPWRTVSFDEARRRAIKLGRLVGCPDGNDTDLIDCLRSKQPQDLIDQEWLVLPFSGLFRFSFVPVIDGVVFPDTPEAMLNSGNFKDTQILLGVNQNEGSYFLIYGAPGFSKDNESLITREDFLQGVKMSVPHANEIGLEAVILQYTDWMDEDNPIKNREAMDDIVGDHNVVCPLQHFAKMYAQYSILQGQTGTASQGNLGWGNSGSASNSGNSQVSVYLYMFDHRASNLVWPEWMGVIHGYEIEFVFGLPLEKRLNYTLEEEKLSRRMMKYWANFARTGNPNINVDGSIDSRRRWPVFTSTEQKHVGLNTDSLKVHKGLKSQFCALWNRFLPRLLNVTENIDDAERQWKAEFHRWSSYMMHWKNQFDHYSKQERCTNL
Sequence of Amyloid-beta precursor protein (Homo sapiens) (P05067 whole entry): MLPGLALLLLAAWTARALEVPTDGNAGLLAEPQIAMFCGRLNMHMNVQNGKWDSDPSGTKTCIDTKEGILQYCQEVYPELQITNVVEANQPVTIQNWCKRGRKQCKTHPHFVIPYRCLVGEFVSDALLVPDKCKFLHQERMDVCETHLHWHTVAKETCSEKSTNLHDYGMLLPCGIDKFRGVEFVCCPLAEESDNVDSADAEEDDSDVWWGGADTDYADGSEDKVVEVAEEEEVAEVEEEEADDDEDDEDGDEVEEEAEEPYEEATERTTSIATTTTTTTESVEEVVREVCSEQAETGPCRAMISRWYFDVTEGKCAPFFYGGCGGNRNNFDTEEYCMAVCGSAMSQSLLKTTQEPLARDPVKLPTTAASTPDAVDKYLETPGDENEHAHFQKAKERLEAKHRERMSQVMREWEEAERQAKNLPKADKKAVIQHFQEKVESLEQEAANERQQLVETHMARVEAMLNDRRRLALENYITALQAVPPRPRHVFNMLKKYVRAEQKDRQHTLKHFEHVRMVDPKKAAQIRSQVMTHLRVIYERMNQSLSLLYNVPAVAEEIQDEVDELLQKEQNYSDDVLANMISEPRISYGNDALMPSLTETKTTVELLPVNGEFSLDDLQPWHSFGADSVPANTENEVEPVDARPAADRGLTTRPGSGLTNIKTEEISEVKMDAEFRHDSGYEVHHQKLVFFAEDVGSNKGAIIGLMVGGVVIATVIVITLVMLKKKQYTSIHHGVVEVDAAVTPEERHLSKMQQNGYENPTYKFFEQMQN

SMILES | IC50 (Acetylcholinesterase) [nM] | inhibition [1] | Activity (SH-SY5Y [2]) | inhibition [3] [%] | Activity (SH-SY5Y [4]) | Activity [5] | IC50 (Cholinesterase) [nM] | Activity [6] | Activity (SH-SY5Y [7]) | Activity (SH-SY5Y [8]) | inhibition [9] [%] | Ratio IC50 [10] | Ratio IC50 [11] | inhibition [12] | Ratio IC50 [13] | Ratio IC50 [14]
CCOC(=O)c1cnc2ccc(OC)cc2c1N1CCN(c2cc(C)nc3ncnn23)CC1 | 760 | Active | Dose-dependent effect | 61.6 | Active | Non-Toxic | 2010 | 79 - 83% | Active | Active | 68.7 | – | – | – | – | –
Cc1cc(N2CCN(c3ncccc3C#N)CC2)n2ncnc2n1 | 1390 | – | – | 46.8 | – | – | 780 | – | – | – | 49.4 | – | – | – | – | –
CCOC(=O)c1cnc2cc(C(F)(F)F)ccc2c1N1CCN(c2cc(C)nc3ncnn23)CC1 | 180 | – | – | 43.8 | – | – | 780 | – | – | – | 52 | – | – | – | – | –
CCOC(=O)c1cnc2cc(C(F)(F)F)ccc2c1N1CCN(c2ncccc2C#N)CC1 | 880 | – | – | 44.2 | – | – | 980 | – | – | – | 47.8 | – | – | – | – | –
CCOC(=O)c1cnc2c(F)cccc2c1N1CCN(c2ncccc2C#N)CC1 | 730 | – | – | 47.4 | – | – | 890 | – | – | – | 50.3 | – | – | – | – | –
CCOC(=O)c1cnc2ccc(F)cc2c1N1CCN(c2cc(C)nc3ncnn23)CC1 | 42 | Active | Dose-dependent effect | 72.9 | Active | Non-Toxic | 510 | 79 - 83% | Active | Active | 80.5 | 74 | 106 | Active | 3.2 | 14
CCOC(=O)c1cnc2ccc(C)cc2c1N1CCN(c2ncccc2C#N)CC1 | 3490 | – | – | 27.3 | – | – | 3000 | – | – | – | – | – | – | – | – | –
CCOC(=O)c1cnc2c(F)cccc2c1N1CCN(c2cc(C)nc3ncnn23)CC1 | 97 | Active | Dose-dependent effect | 64.2 | Active | Non-Toxic | 180 | 79 - 83% | Active | Active | 70.3 | 32 | 46 | – | – | 5
CCOC(=O)c1cnc2ccc(F)cc2c1N1CCN(c2ncccc2C#N)CC1 | 580 | – | – | 54.9 | – | – | 1230 | – | – | – | 59 | – | – | – | – | –
CCOC(=O)c1cnc2ccc(C)cc2c1N1CCN(c2cc(C)nc3ncnn23)CC1 | 2640 | – | – | 52.5 | – | – | 4090 | – | – | – | 54.3 | – | – | – | – | –
CCOC(=O)c1cnc2ccc(OC)cc2c1N1CCN(c2ncccc2C#N)CC1 | 1100 | – | – | 39.8 | – | – | 1900 | – | – | – | – | – | – | – | – | –
